Test results: paper PMC9635925, “Biological screening of a unique drug library targeting MRGPRX2” (Frontiers in Immunology, 2022)
Substitutions are numbered along the chain they refer to. Structures can show the parent of a compound that is named as a salt.

Tests used:
[1] = target: T1, MRGPRX2-WT (wild-type MRGPRX2 receptor) (Homo sapiens, UniProt Q96LB1); assay: Primary HTS, Ca2+ mobilization (fluorescence ratio, B-score) in HEK293-Gα15 cells stably expressing wild-type MRGPRX2; assay type: cell-based; settings: 10 μM compound
T1 construct: expressed in transfected cells
T1 sequence (Q96LB1 1-330): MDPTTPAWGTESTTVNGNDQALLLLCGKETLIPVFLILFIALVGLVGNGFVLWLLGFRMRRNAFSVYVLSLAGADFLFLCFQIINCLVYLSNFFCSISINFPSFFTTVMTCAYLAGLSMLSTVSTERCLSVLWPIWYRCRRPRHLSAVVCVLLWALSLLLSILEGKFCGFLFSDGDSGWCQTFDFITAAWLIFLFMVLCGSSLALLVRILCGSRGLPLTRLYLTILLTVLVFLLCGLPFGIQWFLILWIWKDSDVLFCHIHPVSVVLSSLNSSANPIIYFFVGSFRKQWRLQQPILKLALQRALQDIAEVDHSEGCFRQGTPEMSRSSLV
Protocol: (§1) We performed an experimental HTS on the Johns Hopkins Drug Library, which includes 1,811 (57%) FDA-approved drugs among 3,456 total compounds (28% of all known drugs worldwide) ([15]). We performed the HTS at the Johns Hopkins University ChemBioCORE Facility and employed HEK293-Gα15 cell lines that stably expressed MRGPRX2 protein.
(§2) We utilized 10 μM compounds (each compound was tested in triplicate) and calculated the compound effect using the signal-to-background fluorescence ratio (see Supplementary Methods).
(§3) In the HTS, we determined MRGPRX2 activation by a Ca^2+ mobilization assay that recorded a fluorescence change by utilizing a Functional Drug Screening System (FDSS 6000; Hamamatsu); we evaluated the compound effect using the calculated fluorescence ratio. We further applied the B-score normalization, which provided robust corrections for variation in fluorescence ratio ([22]).
(§4) We performed an experimental high-throughput screening (HTS) on the Johns Hopkins Drug Library (JHDL), which includes 1,811 (57%) FDA-approved drugs among 3,456 total compounds (28% of all known drugs worldwide). The remaining compounds in JHDL are catalogued in one or more of the resources below: British Approved Names (BAN); Dénominations Communes Françaises (DCF); International Nonproprietary Names (INN); Japanese Adopted Names (JAN); MI (Merck Index); National Formulary drug name (NF); and United States Accepted Names (USAN). The JHU drug library is stocked in 96 well plates at 10 mM in 100% DMSO and stored at -80 °C. We used a final concentration of 10 uM for each compound and DMSO concentration of 0.1% (tested in triplicate). […] We evaluated compound effect using the calculated fluorescence ratio. We further calculated B-scores, which are a relative potency score similar to Z scores in that they are the ratio of an adjusted raw value in the numerator to a measure of variability in the denominator.

[2] = target: T2, MRGPRX2-MUT (MRGPRX2 N62S mutation) (Homo sapiens, UniProt Q96LB1, N62S); assay: Primary HTS, Ca2+ mobilization (fluorescence ratio, B-score) in HEK293-Gα15 cells stably expressing the MRGPRX2 N62S mutation; assay type: cell-based; settings: for B-scores (MUT): 10 μM compound, MRGPRX2-MUT (N62S) cells; for Change of B-scores (%): 10 μM
T2 construct: expressed in transfected cells
T2 sequence (Q96LB1 1-330 N62S): T1 sequence (Q96LB1 1-330) with N62S
Protocol: as §1, §2, §3, §4

[3] = MRGPRX2-MUT versus MRGPRX2-WT cells, Supplementary Table 2
[4] = MRGPRX2-MUT in comparison to MRGPRX2-WT cells, Supplementary Table 1
[5] = MRGPRX2-MUT in comparison to MRGPRX2-WT cells, Table 1
[6] = Supplementary Table 2, listed as Dextromethorphan (Delsym)

Structure (SMILES) | B-scores (WT) ([1]; Supplementary Table 2) | B-scores (MUT) ([2]; Supplementary Table 2) | Change of B-scores (%) [2, 3] [%] | B-scores (WT) ([1]; Supplementary Table 1) | B-scores (WT) ([1]; Table 1) | B-scores (MUT) ([2]; Supplementary Table 1) | B-scores (MUT) ([2]; Table 1) | Change of B-scores (%) [2, 4] [%] | Change of B-scores (%) [2, 5] [%] | B-scores (WT) [1, 6] | B-scores (MUT) [2, 6] | Change of B-scores (%) ([2]; MRGPRX2-MUT versus MRGPRX2-WT cells, Supplementary Table 2, listed as Dextromethorphan (Delsym))
O=C(O)c1cn(C2CC2)c2cc(N3CCNCC3)c(F)cc2c1=O [Ciprofloxacin] | 7.33 | 1.91 | -74 | – | – | – | – | – | – | – | – | –
Cl.NC1CCN(c2c(F)cc3c(=O)c(C(=O)O)cn(C4CC4)c3c2Cl)C1 (centres unmarked) [Clinafoxacin Hydrochloride] | – | – | – | 26.08 | 26.08 | 0.92 | 0.92 | -96.48 | -96.48 | – | – | –
CN(C)CCCN1c2ccccc2CCc2ccc(Cl)cc21 [Clomipramine Hydrochloride] | 30.29 | 2.17 | -92.83 | 30.29 | 30.29 | 2.17 | 2.17 | -92.83 | -92.83 | – | – | –
C=C[C@@]1(C)CC(=O)[C@]2(O)[C@@]3(C)[C@@H](O)CCC(C)(C)[C@@H]3[C@H](O)[C@H](OC(C)=O)[C@@]2(C)O1 [Colforsin] | – | – | – | 21.10 | – | 0.76 | – | -96.40 | – | – | – | –
C[C@@H](Oc1cc(-c2cnn(C3CCNCC3)c2)cnc1N)c1c(Cl)ccc(F)c1Cl [Crizotinib] | – | – | – | 22.06 | 22.06 | – | -0.44 | -101.99 | -101.99 | – | – | –
CN(C)CCC=C1c2ccccc2C=Cc2ccccc21 [Cyclobenzaprine Hydrochloride] | 16.49 | 1.22 | -92.62 | – | – | – | – | – | – | – | – | –
CN1CCC(=C2c3ccccc3C=Cc3ccccc32)CC1 [Cyproheptadine Hydrochloride] | – | – | – | 41.66 | 41.66 | 2.29 | 2.29 | -94.50 | -94.50 | – | – | –
CO[C@@H](C(=O)N1Cc2n[nH]c(NC(=O)c3ccc(N4CCN(C)CC4)cc3)c2C1)c1ccccc1 [Danusertib] | – | – | – | 20.37 | 20.37 | 0.61 | 0.61 | -97.00 | -97.00 | – | – | –
COc1cccc2c1C(=O)c1c(O)c3c(c(O)c1C2=O)C[C@@](O)(C(C)=O)C[C@@H]3O[C@H]1C[C@H](N)[C@H](O)[C@H](C)O1 [Daunorubicin] | 8.85 | 37.13 | 319.41 | – | – | – | – | – | – | – | – | –
CNCCCN1c2ccccc2CCc2ccccc21 [Desipramine Hydrochloride] | 7.48 | -2.96 | -139.62 | – | – | – | – | – | – | – | – | –
CNCCCN1c2ccccc2CCc2ccccc21 [Desipramine] | 13.96 | 1.19 | -91.45 | – | – | – | – | – | – | – | – | –
CN(C)CC[C@@H](c1ccc(Cl)cc1)c1ccccn1 [Dexchlorpheniramine Maleate] | 24.82 | 0.56 | -97.76 | 24.82 | 24.82 | 0.56 | 0.56 | -97.76 | -97.76 | – | – | –
Br.COc1ccc2c(c1)[C@]13CCCC[C@@H]1[C@H](C2)N(C)CC3.O [Dextromethorphan Hydrobromide Monohydrate] | – | – | – | 23.02 | – | 54.88 | – | 138.39 | – | – | – | –
COc1ccc2c(c1)[C@]13CCCC[C@@H]1[C@H](C2)N(C)CC3 [Dextromethorphan hydrobromide] | 23.02 | 54.88 | 138.39 | 38.47 | – | 84.34 | – | 119.23 | – | 38.47 | 84.34 | 119.23
CN1CC[C@@]23CCCC[C@@H]2[C@@H]1Cc1ccc(O)cc13 [Dextrorphan] | 31.94 | 68.33 | 113.94 | – | – | – | – | – | – | – | – | –
CN(C)CCN1C(=O)c2ccccc2N(C)c2ccccc21 [Dibenzepin] | – | – | – | 25.48 | 25.48 | – | -1.62 | -106.37 | -106.37 | – | – | –
CN1CCN(c2cc3c(cc2F)c(=O)c(C(=O)O)cn3-c2ccc(F)cc2)CC1 [Difloxacin Hydrochloride] | 44.81 | -1.54 | -103.45 | 44.81 | 44.81 | 1.54 | -1.54 | -103.45 | -103.45 | – | – | –
COc1ccc([C@@H]2Sc3ccccc3N(CCN(C)C)C(=O)[C@@H]2OC(C)=O)cc1 [Diltiazem Hydrochloride] | – | – | – | 22.99 | – | – | – | -104.18 | – | – | – | –
CCCCC[C@H](O)/C=C/[C@H]1[C@H](O)CC(=O)[C@@H]1C/C=C\CCCC(=O)O [Dinoprostone (Prostaglandin E2)] | – | – | – | 40.59 | – | 17.30 | – | -57.38 | – | – | – | –
CN(C)CCOC(c1ccccc1)c1ccccc1 [Diphenhydramine Hydrochloride] | 10.26 | 0.66 | -93.55 | – | – | – | – | – | – | – | – | –
CN(C)CCC=C1c2ccccc2COc2ccccc21 [Doxepin Hydrochloride] | 12.95 | 1.85 | -85.71 | – | – | – | – | – | – | – | – | –
CNCC[C@H](Oc1cccc2ccccc12)c1cccs1 [Duloxetine Hydrochloride] | – | – | – | 44.22 | – | 0.64 | – | -98.55 | – | – | – | –
CNC[C@H](O)c1ccc(O)c(O)c1 [Epinephrine Bitartrate] | 25.6 | 11.72 | -54.24 | 25.60 | – | 11.72 | – | -54.24 | – | – | – | –
CNC[C@H](O)c1ccc(O)c(O)c1 [Epinephrine] | 17.52 | 8.28 | -52.73 | – | – | – | – | – | – | – | – | –
CCCCC[C@H](O)/C=C/[C@@H]1[C@H]2C/C(=C/CCCC(=O)O)O[C@H]2C[C@H]1O [Epoprostenol] | – | – | – | 27.44 | – | 10.83 | – | -60.51 | – | – | – | –
CC(Cc1ccc(O)cc1)NCC(O)c1cc(O)cc(O)c1 (centres unmarked) [Fenoterol Hydrobromide] | 20.31 | -0.03 | -100.16 | 20.31 | – | – | – | -100.16 | – | – | – | –
CC(Cc1ccc(O)cc1)NCC(O)c1cc(O)cc(O)c1 (centres unmarked) [Fenoterol] | 23.48 | 13.78 | -41.33 | 23.48 | – | 13.78 | – | -41.33 | – | – | – | –
